This is an account of results in patent US8791110B2 (priority 2006, dated 2014).

The test system of one data set is Arenavirus. The conditions noted are these: cited from earlier work.
For data set [1], the system named is Tacaribe (TRVL 11573) virus. In words: microbe, parasite or virus in culture. It is filed as cell-based. The settings on record: Mammarenavirus tacaribeense, Vero.
In the next data set the test system is Candid 1. In words: organism not typed. It counts as cell-based, Junín virus. The settings on record: read-out: EC50 Candid 1.
A short description of another data set: in vitro. The settings on record: African green monkey.
The conditions of data set [2]: in vivo; cited from earlier work.
The conditions of data set [3]: in vivo; cited from earlier work. The source holds these as a separate data set.
For a further data set, the system named is Machupo virus. In words: microbe, parasite or virus in culture. It is filed as cell-based. The conditions noted are these: Mammarenavirus machupoense, Vero, 120 h, read-out: EC50 Category A NWA, Machupo.
A further data set relates to Guanarito virus. In words: microbe, parasite or virus in culture. It counts as cell-based. The conditions noted are these: Mammarenavirus guanaritoense, Vero, 120 h, read-out: EC50 Category A NWA, Guanarito.

Read-outs that look alike come from different tables or passages of the source. Numbered stars: 1 amine (or outer) side, 2 acyl side, 3 side chain; on linkers, the order of the positions; unused ones are H or OH. Bridge positions count the residues as written; N and C are the ends. Square brackets hold non-standard residues; d marks the D form. Peptide text beside a SMILES is read from it. I, II: the chains in the order shown. Actinocin(9to1) = Cc1c2oc3c(C)ccc(C(=O)[*:1])c3nc-2c(C(=O)[*:2])c(N)c1=O; NMeV = CN[C@H](C(=O)O)C(C)C; Sar = CNCC(=O)O Where only a bound is given, the exact number is not on record here.

With `CN(C)CCCN1c2ccccc2Sc2ccc(Cl)cc21` [chlorpromazine], in the data set with Arenavirus, the anti-Arenavirus activity result is “generally weak and non-specific”.
On to `CN1CCN(CCCN2c3ccccc3Sc3ccc(C(F)(F)F)cc32)CC1` [trifluoroperazine], for which, in the data set on Arenavirus, the anti-Arenavirus activity entry was “generally weak and non-specific”.
Turning to `Cc1c2oc3c(C)ccc(C(=O)N[C@@H]4C(=O)N[C@H](C(C)C)C(=O)N5CCC[C@H]5C(=O)N(C)CC(=O)N(C)[C@@H](C(C)C)C(=O)O[C@@H]4C)c3nc-2c(C(=O)N[C@@H]2C(=O)N[C@H](C(C)C)C(=O)N3CCC[C@H]3C(=O)N(C)CC(=O)N(C)[C@@H](C(C)C)C(=O)O[C@@H]2C)c(N)c1=O` [actinomycin D] (I: T[dV]P[Sar][NMeV] / II: T[dV]P[Sar][NMeV]; ester I:1-I:C, II:1-II:C; linker I:N-II:N via Actinocin(9to1)), in the data set with Arenavirus, the anti-Arenavirus activity entry was “generally weak and non-specific”.
With `CN1CCN(C(=O)Nc2ccc(Cl)c(Cl)c2)CC1` [Compound 20013], the EC50 is > 50 µM in data set [1] (168 h, read-out: EC50 Tacaribe) and > 50 µM in the data set on Candid 1. The CC50 with Vero cells (African green monkey) and in the data set “in vitro” was > 50 µM throughout.
Regarding `NC(=O)c1ncn([C@@H]2O[C@H](CO)[C@@H](O)[C@H]2O)n1` [ribavirin, Ribavirin], the adverse effects result in [2] is recorded as “dose-related, reversible hemolytic anemia”. Also, in data set [3], the reproductive toxicity entry was “teratogenicity and embryo lethality”.
Regarding `NC12CC3CC(CC(C3)C1)C2` [amantadine], in the data set on Arenavirus, the anti-Arenavirus activity result is “generally weak and non-specific”.
`CN1CCN(C(=S)Nc2ccc(Cl)c(Cl)c2)CC1` [Compound 313761, 4-methyl-piperazine-1-carbothioic acid (3,4-dichlorophenyl)-amide]: the concentration for a half-maximal effect (EC50) in data set [1] (168 h, read-out: EC50 Tacaribe) is 0.14 µM; in data set [1] (read-out: EC50 value in the CPE assay), 0.14 µM; in the data set on Candid 1 it was 0.26 µM; in the data set with Machupo virus it was 0.3 µM; in the data set on Guanarito virus it was 0.15 µM. Moreover, in the data set on Vero cells, the “toxicity / effect on cell growth at antiviral concentrations” value is reported as “active at non-toxic concentrations”. In “in vitro”, this compound had a CC50 of 50 µM.

In general, EC50 refers to the concentration that produces a half-maximal response.
